In publication PMC6597546, “Identification of a potent benzoxaborole drug candidate for treating cryptosporidiosis” (Nature Communications, 2019):
“And” between values parts separate entries of the source, which are not always exact repeats. Equal entries are not always repeated.

Test system: C. parvum (Bunch Grass Farms Iowa isolate)
Assay: Neonatal calf model of cryptosporidiosis
Type: in vivo
Design: key to Oocyst Shedding, individual calves / Oocyst Shedding: C. parvum abundance per gram of fecal dry matter (qPCR); key to Fecal Consistency Score, individual calves / Fecal Consistency Score: score 1 = normal, 3 = severely abnormal
Method: All calf efficacy studies were performed as previously described. These studies were approved by the University of Vermont Institutional animal Care and Use Committee, and conducted in compliance with the USDA-APHIS “Blue Book”, available at www.aphis.usda.gov/animal-welfare. Holstein bull calves were acquired at birth from Green Mountain Dairy (Sheldon, VT), given synthetic colostrum with 200 g of IgG (Land O’Lakes, Ardent Hills, MO) and bovine coronavirus and Escherichia coli antibodies (First Defense Bolus, Immuncell Corporation, Portland, ME) within 2 h of birth, and transported to UVM. Calves were group-housed initially, and infected at 24–48 h of age during an interruption in bottle feeding by oral administration of ∼5 × 10^7 C. parvum Iowa isolate oocysts (Bunch Grass Farms, Deary, ID) suspended in 10 mL of water. They were then moved to individual raised pens, and observed twice daily at feeding times for clinical signs, which were quantified according to a previously described standardized scoring rubric. Data on fecal consistency, dehydration and overall health were collected, in each case with a score of 1 being normal and 3 being severely abnormal (scoring rubric in Supplementary Table 2). Clinical microbiologic studies for adventitious infectious agents including Salmonella culture, aerobic bacterial culture with E. coli genotyping, rotavirus, and coronavirus testing were performed on all calves at the onset of diarrhea by the Cornell Animal Health Diagnostic Center (Ithaca, NY). Animals with severe diarrhea or other symptoms were supported aggressively, including with administration of oral electrolytes, intravenous fluids and flunixin meglumine (Banamine, Merck) as needed. […] Daily fecal samples were obtained from collections bins located under each pen. Fecal samples used for parasite quantification were dried at 90 °C until stable in weight, and C. parvum abundance per gram of fecal dry matter was measured using qPCR and the primers Cp18s forward and Cp18s reverse.

[1] = 5 mg per kg twice daily oral, days 2–8
[2] = 6.67 mg/kg every 8 h for three days, Calf 1, Day 0
[3] = 6.67 mg/kg every 8 h for three days, Calf 1, Day 1
[4] = 6.67 mg/kg every 8 h for three days, Calf 1, Day 2
[5] = 6.67 mg/kg every 8 h for three days, Calf 1, Day 3
[6] = 6.67 mg/kg every 8 h for three days, Calf 1, Day 4
[7] = 6.67 mg/kg every 8 h for three days, Calf 1, Day 5
[8] = 6.67 mg/kg every 8 h for three days, Calf 1, Day 6
[9] = 6.67 mg/kg every 8 h for three days, Calf 1, Day 7
[10] = 6.67 mg/kg every 8 h for three days, Calf 1, Day 8
[11] = 6.67 mg/kg every 8 h for three days, Calf 1, Day 9
[12] = 6.67 mg/kg every 8 h for three days, Calf 1, Day 10
[13] = 6.67 mg/kg every 8 h for three days, Calf 1, Day 11
[14] = 6.67 mg/kg every 8 h for three days, Calf 1, Day 12
[15] = 6.67 mg/kg every 8 h for three days, Calf 1, Day 13
[16] = 6.67 mg/kg every 8 h for three days, Calf 1, Day 14
[17] = 6.67 mg/kg every 8 h for three days, Calf 2, Day 0
[18] = 6.67 mg/kg every 8 h for three days, Calf 2, Day 1
[19] = 6.67 mg/kg every 8 h for three days, Calf 2, Day 2
[20] = 6.67 mg/kg every 8 h for three days, Calf 2, Day 3
[21] = 6.67 mg/kg every 8 h for three days, Calf 2, Day 4
[22] = 6.67 mg/kg every 8 h for three days, Calf 2, Day 5
[23] = 6.67 mg/kg every 8 h for three days, Calf 2, Day 6
[24] = 6.67 mg/kg every 8 h for three days, Calf 2, Day 7
[25] = 6.67 mg/kg every 8 h for three days, Calf 2, Day 8
[26] = 6.67 mg/kg every 8 h for three days, Calf 2, Day 9
[27] = 6.67 mg/kg every 8 h for three days, Calf 2, Day 10
[28] = 6.67 mg/kg every 8 h for three days, Calf 2, Day 11
[29] = 6.67 mg/kg every 8 h for three days, Calf 2, Day 12
[30] = 6.67 mg/kg every 8 h for three days, Calf 2, Day 13
[31] = 6.67 mg/kg every 8 h for three days, Calf 2, Day 14
[32] = 6.67 mg/kg every 8 h for three days, Calf 3, Day 0
[33] = 6.67 mg/kg every 8 h for three days, Calf 3, Day 1
[34] = 6.67 mg/kg every 8 h for three days, Calf 3, Day 2
[35] = 6.67 mg/kg every 8 h for three days, Calf 3, Day 3
[36] = 6.67 mg/kg every 8 h for three days, Calf 3, Day 4
[37] = 6.67 mg/kg every 8 h for three days, Calf 3, Day 5
[38] = 6.67 mg/kg every 8 h for three days, Calf 3, Day 6
[39] = 6.67 mg/kg every 8 h for three days, Calf 3, Day 7
[40] = 6.67 mg/kg every 8 h for three days, Calf 3, Day 8
[41] = 6.67 mg/kg every 8 h for three days, Calf 3, Day 9
[42] = 6.67 mg/kg every 8 h for three days, Calf 3, Day 10
[43] = 6.67 mg/kg every 8 h for three days, Calf 3, Day 11
[44] = 6.67 mg/kg every 8 h for three days, Calf 3, Day 12
[45] = 6.67 mg/kg every 8 h for three days, Calf 3, Day 13
[46] = 6.67 mg/kg every 8 h for three days, Calf 3, Day 14
[47] = 10 mg per kg twice daily for 7 days begun day 4
[48] = 10 mg/kg every 12 h with delayed start, Calf 1, Day 0
[49] = 10 mg/kg every 12 h with delayed start, Calf 1, Day 1

Question: Which results are given for `CC1(C)OB(O)c2cc(NC(=O)c3ccc(-n4cccn4)cc3Cl)ccc21` [AN7973]?
Answer: effect on diarrhea [1]: completely eliminated diarrhea; effect on parasite shedding [1]: curtailed parasite shedding; AUC for the dehydration scores, individual animals (5 mg/kg BID): 0; AUC for the diarrhea scores, individual animals (5 mg/kg BID): 0; Oocyst Shedding, individual calves (5 mg/kg every 12 h on days 2–8, Day 0): 100; Oocyst Shedding, individual calves (5 mg/kg every 12 h on days 2–8, Day 1): 100 and 583; Oocyst Shedding, individual calves (5 mg/kg every 12 h on days 2–8, Day 2): 4179 and 2794; Oocyst Shedding, individual calves (5 mg/kg every 12 h on days 2–8, Day 3): 46248 and 34331; Oocyst Shedding, individual calves (5 mg/kg every 12 h on days 2–8, Day 4): 68492 and 55772; Oocyst Shedding, individual calves (5 mg/kg every 12 h on days 2–8, Day 6): 265539 and 3628; Oocyst Shedding, individual calves (5 mg/kg every 12 h on days 2–8, Day 7): 39302 and 2599; Oocyst Shedding, individual calves (5 mg/kg every 12 h on days 2–8, Day 8): 43202 and 100; Oocyst Shedding, individual calves (5 mg/kg every 12 h on days 2–8, Day 9): 146 and 100; Oocyst Shedding, individual calves (5 mg/kg every 12 h on days 2–8, Day 10): 611 and 192; effect on diarrhea (6.67 mg per kg three times per day for 3 days): eliminated diarrhea; reduction of the rate of parasite shedding during treatment (6.67 mg per kg three times per day for 3 days, parasitological relapse followed): ~3 log; AUC for the dehydration scores, individual animals (6.67 mg/kg TID (3 days)): 0 and 0.3333; AUC for the diarrhea scores, individual animals (6.67 mg/kg TID (3 days)): 0 and 1.333; Fecal Consistency Score [2]: 1; Oocyst Shedding [2]: 415; Fecal Consistency Score [3]: 1; Oocyst Shedding [3]: 1163; Fecal Consistency Score [4]: 1; Oocyst Shedding [4]: 989897; Fecal Consistency Score [5]: 1; Oocyst Shedding [5]: 285174; Fecal Consistency Score [6]: 1; Oocyst Shedding [6]: 27986; Fecal Consistency Score [7]: 1; Oocyst Shedding [7]: 2214; Fecal Consistency Score [8]: 1; Oocyst Shedding [8]: 10466; Fecal Consistency Score [9]: 1; Oocyst Shedding [9]: 16062; Fecal Consistency Score [10]: 1; Oocyst Shedding [10]: 525550; Fecal Consistency Score [11]: 1; Oocyst Shedding [11]: 522608; Fecal Consistency Score [12]: 1; Oocyst Shedding [12]: 905562; Fecal Consistency Score [13]: 1; Oocyst Shedding [13]: 8303500; Fecal Consistency Score [14]: 1; Oocyst Shedding [14]: 134619; Fecal Consistency Score [15]: 1; Oocyst Shedding [15]: 473515; Fecal Consistency Score [16]: 1; Oocyst Shedding [16]: 35244; Fecal Consistency Score [17]: 2; Oocyst Shedding [17]: 1; Fecal Consistency Score [18]: 2; Oocyst Shedding [18]: 16497; Fecal Consistency Score [19]: 1; Oocyst Shedding [19]: 909; Fecal Consistency Score [20]: 1; Oocyst Shedding [20]: 179330; Fecal Consistency Score [21]: 1; Oocyst Shedding [21]: 38982; Fecal Consistency Score [22]: 1; Oocyst Shedding [22]: 6563; Fecal Consistency Score [23]: 1; Oocyst Shedding [23]: 1; Fecal Consistency Score [24]: 1; Oocyst Shedding [24]: 1; Fecal Consistency Score [25]: 1; Oocyst Shedding [25]: 1; Fecal Consistency Score [26]: 1; Oocyst Shedding [26]: 1; Fecal Consistency Score [27]: 1; Oocyst Shedding [27]: 162; Fecal Consistency Score [28]: 1; Oocyst Shedding [28]: 82; Fecal Consistency Score [29]: 1; Oocyst Shedding [29]: 1213; Fecal Consistency Score [30]: 1; Oocyst Shedding [30]: 387; Fecal Consistency Score [31]: 1; Oocyst Shedding [31]: 188; Fecal Consistency Score [32]: 1; Oocyst Shedding [32]: 1089; Fecal Consistency Score [33]: 1; Oocyst Shedding [33]: 3597; Fecal Consistency Score [34]: 1.33; Oocyst Shedding [34]: 9022387; Fecal Consistency Score [35]: 1.67; Oocyst Shedding [35]: 2560722; Fecal Consistency Score [36]: 1.5; Oocyst Shedding [36]: 582683; Fecal Consistency Score [37]: 1; Oocyst Shedding [37]: 6828; Fecal Consistency Score [38]: 1; Oocyst Shedding [38]: 54223; Fecal Consistency Score [39]: 1; Oocyst Shedding [39]: 8461; Fecal Consistency Score [40]: 1; Oocyst Shedding [40]: 2785; Fecal Consistency Score [41]: 1; Oocyst Shedding [41]: 50511; Fecal Consistency Score [42]: 1; Oocyst Shedding [42]: 198125; Fecal Consistency Score [43]: 1.33; Oocyst Shedding [43]: 100223; Fecal Consistency Score [44]: 1; Oocyst Shedding [44]: 154951; Fecal Consistency Score [45]: 1; Oocyst Shedding [45]: 141133; Fecal Consistency Score [46]: 1.5; Oocyst Shedding [46]: 78359; effect on parasite shedding and diarrhea (10 mg per kg once daily oral, days 2–8, shedding resumed and persisted): reduced peak parasite shedding and diarrhea; parasite shedding [47]: abolished by day 14; reduction of total parasite shedding [47]: greater than 1 log; diarrhea cured faster than in controls (10 mg per kg twice daily for 7 days begun day 4 (peak of symptoms)): 3 days; AUC for the dehydration scores, individual animals (10 mg/kg BID (delayed start)): 0.3333 and 0 and 0.8333; AUC for the diarrhea scores, individual animals (10 mg/kg BID (delayed start)): 1.167 and 2.333 and 2.833; AUC for the dehydration scores, individual animals (10 mg/kg QD): 0.3333 and 0.5; AUC for the diarrhea scores, individual animals (10 mg/kg QD): 2.5 and 1.833 and 2.167; Fecal Consistency Score [48]: 1.67; Oocyst Shedding [48]: 1; Fecal Consistency Score [49]: 2; Oocyst Shedding [49]: 735
